Reference: ChEMBL document CHEMBL4145594, “Discovery of N-Alkyl Piperazine Side Chain Based CXCR4 Antagonists with Improved Drug-like Properties” (ACS Med Chem Lett, 2018)
Activity calls are given as the source filed them. No cut-off for these calls is given here.

Key:
[1] = Stability in human liver microsomes assessed as parent compound remaining at 0.5 uM after 10 mins by LC-MS analysis
[2] = molecular target: T1, C-X-C chemokine receptor type 4 (Homo sapiens, UniProt P61073); assay: Agonist activity at CXCR4 in human CCRF-CEM cells measured for 90 secs by calcium flux assay; type: functional, cell-based
T1 sequence (P61073 whole entry): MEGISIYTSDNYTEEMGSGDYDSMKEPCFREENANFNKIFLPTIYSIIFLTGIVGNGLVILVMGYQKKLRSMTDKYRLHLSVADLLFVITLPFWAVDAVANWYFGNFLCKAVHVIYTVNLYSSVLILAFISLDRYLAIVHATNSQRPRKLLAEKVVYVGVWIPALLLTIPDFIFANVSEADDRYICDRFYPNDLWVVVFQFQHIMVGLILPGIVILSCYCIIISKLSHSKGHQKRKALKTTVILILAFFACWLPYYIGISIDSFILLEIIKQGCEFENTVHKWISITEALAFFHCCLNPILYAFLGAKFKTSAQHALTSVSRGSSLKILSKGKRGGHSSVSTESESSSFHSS

[3] = molecular target: T1, C-X-C chemokine receptor type 4; assay: Antagonist activity at CXCR4 in human CCRF-CEM cells assessed as inhibition of […]-induced calcium flux pretreated for 25 mins followed by […] addition measured for 90 secs by calcium-dye based assay; type: functional, cell-based
[4] = molecular target: Muscarinic acetylcholine receptor; assay: Antagonist activity at mAChR in human CCRF-CEM cells assessed as inhibition of acetylcholine-induced calcium flux pretreated for 25 mins followed by acetylcholine addition measured for 90 secs by calcium-dye based assay; type: functional, cell-based
[5] = Stability in rat liver microsomes assessed as parent compound remaining at 0.5 uM after 10 mins by LC-MS analysis
[6] = Stability in mouse liver microsomes assessed as parent compound remaining at 0.5 uM after 10 mins by LC-MS analysis
[7] = molecular target: Cytochrome P450 3A4 (Homo sapiens, UniProt P08684); assay: Inhibition of CYP3A4 (unknown origin); type: ADME
Sequence of Cytochrome P450 3A4 (P08684 whole entry): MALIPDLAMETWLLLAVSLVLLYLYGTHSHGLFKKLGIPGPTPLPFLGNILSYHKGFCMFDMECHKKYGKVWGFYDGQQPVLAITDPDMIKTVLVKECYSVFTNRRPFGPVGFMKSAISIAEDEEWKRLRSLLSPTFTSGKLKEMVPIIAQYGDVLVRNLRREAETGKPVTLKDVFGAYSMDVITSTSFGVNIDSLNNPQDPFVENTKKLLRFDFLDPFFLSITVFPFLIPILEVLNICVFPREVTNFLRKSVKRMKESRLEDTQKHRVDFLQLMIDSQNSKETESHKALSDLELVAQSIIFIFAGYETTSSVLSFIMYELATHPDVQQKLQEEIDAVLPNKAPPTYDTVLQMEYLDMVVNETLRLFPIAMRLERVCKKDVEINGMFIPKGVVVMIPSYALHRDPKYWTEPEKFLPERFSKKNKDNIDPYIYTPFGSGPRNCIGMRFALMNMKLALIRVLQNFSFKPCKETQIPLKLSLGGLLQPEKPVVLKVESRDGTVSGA

[8] = molecular target: Cytochrome P450 2D6 (Homo sapiens, UniProt P10635)
Sequence of Cytochrome P450 2D6 (P10635 whole entry): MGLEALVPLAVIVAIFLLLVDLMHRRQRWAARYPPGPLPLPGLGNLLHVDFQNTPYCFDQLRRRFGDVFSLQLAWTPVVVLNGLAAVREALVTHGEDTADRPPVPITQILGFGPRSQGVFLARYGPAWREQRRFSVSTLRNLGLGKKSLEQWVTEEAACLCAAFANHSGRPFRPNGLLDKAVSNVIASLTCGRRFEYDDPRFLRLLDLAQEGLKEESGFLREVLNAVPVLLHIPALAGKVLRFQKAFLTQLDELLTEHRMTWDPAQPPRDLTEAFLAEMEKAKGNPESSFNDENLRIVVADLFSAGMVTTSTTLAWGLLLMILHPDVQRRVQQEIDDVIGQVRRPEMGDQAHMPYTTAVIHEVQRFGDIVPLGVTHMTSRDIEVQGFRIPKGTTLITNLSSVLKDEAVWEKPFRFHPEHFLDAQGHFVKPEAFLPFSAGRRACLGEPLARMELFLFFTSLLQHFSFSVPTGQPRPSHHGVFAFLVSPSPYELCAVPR
Description: Inhibition of recombinant human CYP2D6 expressed in insect cell microsomes using AMMC as substrate pretreated for 30 mins followed by NADPH addition measured after 45 mins by fluorescence assay

[9] = in vitro; details: PAMPA, pH 7.4
Description: Permeability of the compound at pH 7.4 after 4 hrs by PAMPA

[10] = molecular target: T2, Alpha-2A adrenergic receptor (Homo sapiens, UniProt P08913); assay: Inhibition of adrenergic alpha2A receptor (unknown origin)
T2 sequence (P08913 whole entry): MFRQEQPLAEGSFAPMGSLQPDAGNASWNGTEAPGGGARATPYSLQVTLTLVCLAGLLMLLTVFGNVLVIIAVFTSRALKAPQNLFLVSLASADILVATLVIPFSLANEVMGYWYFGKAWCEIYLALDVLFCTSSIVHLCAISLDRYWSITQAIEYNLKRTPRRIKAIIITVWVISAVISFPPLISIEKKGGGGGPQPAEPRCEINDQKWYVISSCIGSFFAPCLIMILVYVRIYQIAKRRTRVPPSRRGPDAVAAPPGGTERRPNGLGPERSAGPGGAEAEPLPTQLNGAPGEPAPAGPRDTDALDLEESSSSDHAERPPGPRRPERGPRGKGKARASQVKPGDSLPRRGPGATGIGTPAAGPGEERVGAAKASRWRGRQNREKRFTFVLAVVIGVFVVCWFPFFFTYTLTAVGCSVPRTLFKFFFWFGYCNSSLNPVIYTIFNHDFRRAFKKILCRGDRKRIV

[11] = molecular target: Mu-type opioid receptor (Homo sapiens, UniProt P35372); assay: Inhibition of mu opioid receptor (unknown origin)
Sequence of Mu-type opioid receptor (P35372 whole entry): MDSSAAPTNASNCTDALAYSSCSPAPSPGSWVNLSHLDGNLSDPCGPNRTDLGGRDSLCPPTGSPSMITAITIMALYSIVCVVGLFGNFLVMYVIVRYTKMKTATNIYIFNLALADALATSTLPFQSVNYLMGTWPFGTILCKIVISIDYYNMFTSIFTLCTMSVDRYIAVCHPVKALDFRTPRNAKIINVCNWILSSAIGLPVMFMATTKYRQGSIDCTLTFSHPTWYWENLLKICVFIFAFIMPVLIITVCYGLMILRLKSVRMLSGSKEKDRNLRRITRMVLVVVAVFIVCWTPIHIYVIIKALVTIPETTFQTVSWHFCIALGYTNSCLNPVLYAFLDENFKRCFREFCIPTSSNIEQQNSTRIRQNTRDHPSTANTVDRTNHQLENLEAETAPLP

[12] = molecular target: Acetylcholine receptor subunit alpha (Homo sapiens, UniProt P02708); assay: Inhibition of nAChR alpha1 (unknown origin)
Sequence of Acetylcholine receptor subunit alpha (P02708 whole entry): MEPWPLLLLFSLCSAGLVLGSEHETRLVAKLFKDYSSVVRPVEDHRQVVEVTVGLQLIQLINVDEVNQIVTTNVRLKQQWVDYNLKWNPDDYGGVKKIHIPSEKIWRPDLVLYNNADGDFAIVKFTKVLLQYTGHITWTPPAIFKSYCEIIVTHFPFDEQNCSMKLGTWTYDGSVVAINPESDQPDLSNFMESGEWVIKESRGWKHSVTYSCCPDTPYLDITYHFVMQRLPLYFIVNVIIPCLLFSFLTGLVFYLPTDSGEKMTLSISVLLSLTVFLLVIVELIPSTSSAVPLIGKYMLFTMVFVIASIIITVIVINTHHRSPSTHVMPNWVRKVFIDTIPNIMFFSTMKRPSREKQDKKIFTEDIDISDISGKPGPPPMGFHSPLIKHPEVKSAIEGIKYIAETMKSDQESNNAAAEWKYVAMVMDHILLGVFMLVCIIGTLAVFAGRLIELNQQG

[13] = molecular target: Acetylcholinesterase (Homo sapiens, UniProt P22303); assay: Inhibition of AChE (unknown origin)
Sequence of Acetylcholinesterase (P22303 whole entry): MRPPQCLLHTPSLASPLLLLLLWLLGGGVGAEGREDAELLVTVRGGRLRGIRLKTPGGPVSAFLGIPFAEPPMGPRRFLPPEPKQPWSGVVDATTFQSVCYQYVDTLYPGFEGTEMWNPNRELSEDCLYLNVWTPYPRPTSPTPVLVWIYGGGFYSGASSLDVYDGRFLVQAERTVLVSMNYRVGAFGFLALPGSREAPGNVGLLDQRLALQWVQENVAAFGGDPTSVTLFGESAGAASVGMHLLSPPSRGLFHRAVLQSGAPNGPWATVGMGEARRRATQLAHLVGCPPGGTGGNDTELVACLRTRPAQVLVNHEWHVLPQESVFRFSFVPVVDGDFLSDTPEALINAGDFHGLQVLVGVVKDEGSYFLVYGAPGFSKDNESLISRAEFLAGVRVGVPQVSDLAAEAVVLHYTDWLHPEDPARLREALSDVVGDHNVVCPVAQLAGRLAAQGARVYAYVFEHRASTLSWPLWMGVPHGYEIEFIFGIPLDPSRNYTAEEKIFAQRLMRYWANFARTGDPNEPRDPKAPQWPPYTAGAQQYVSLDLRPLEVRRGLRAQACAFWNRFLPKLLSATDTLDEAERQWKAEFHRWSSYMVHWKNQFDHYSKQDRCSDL

[14] = species on record: Homo sapiens; assay: Therapeutic index, ratio of IC50 for adrenergic alpha2A receptor (unknown origin) to IC50 for CXCR4 in human CCRF-CEM cells; type: cell-based
[15] = species on record: Homo sapiens; assay: Therapeutic index, ratio of IC50 for mu opioid receptor (unknown origin) to IC50 for CXCR4 in human CCRF-CEM cells; type: cell-based
[16] = species on record: Homo sapiens; assay: Therapeutic index, ratio of IC50 for nAChR alpha1 (unknown origin) to IC50 for CXCR4 in human CCRF-CEM cells; type: cell-based
[17] = species on record: Homo sapiens; assay: Therapeutic index, ratio of IC50 for AChE (unknown origin) to IC50 for CXCR4 in human CCRF-CEM cells; type: cell-based

| Compound | remaining at 10 min, 0.5 µM [1] [%] | Activity [2] | IC50 [3] [µM] | IC50 [4] [µM] | remaining at 10 min, 0.5 µM [5] [%] | remaining at 10 min, 0.5 µM [6] [%] | IC50 [7] [µM] | IC50 [8] [µM] | Papp at 4 h [9] [×10⁻⁶ cm/s] | IC50 [10] [µM] | IC50 [11] [µM] | IC50 [12] [µM] | IC50 [13] [µM] | Ratio IC50 [14] | Ratio IC50 [15] | Ratio IC50 [16] | Ratio IC50 [17] |
| --- | --- | --- | --- | --- | --- | --- | --- | --- | --- | --- | --- | --- | --- | --- | --- | --- | --- |
| CN1CCN(CCCN(CC2Cc3ccccc3CN2C)[C@H]2CCCc3cccnc32)CC1 (single isomer, unassigned) | 60 | inactive | 0.536 | > 17 | 2 | 43 | > 20 | 5.14 | 51.3 |  |  |  |  |  |  |  |  |
| c1ccc2c(c1)CN[C@@H](CN(CCCN1CCN(C3CC3)CC1)[C@H]1CCCc3cccnc31)C2 | 21 | inactive | 0.05 | > 17 | 2 | 3 | > 20 | 6.04 | 50.5 |  |  |  |  |  |  |  |  |
| NC(=O)N1CCN(CCCN(C[C@H]2Cc3ccccc3CN2)[C@H]2CCCc3cccnc32)CC1 | 79 | inactive | 0.959 | 4.98 | 4 | 42 | > 20 | 4.14 | 6.7 |  |  |  |  |  |  |  |  |
| c1ccc2c(c1)CN[C@@H](CN(CC1CCNCC1)[C@H]1CCCc3cccnc31)C2 | 86 | inactive | 0.065 | > 14 | 65 | 13 | > 12 | 1.87 |  |  |  |  |  |  |  |  |  |
| NCCCCN(Cc1nc2ccccc2[nH]1)[C@H]1CCCc2cccnc21 [MAVORIXAFOR] |  | inactive |  | > 17 |  |  |  |  |  |  |  |  |  |  |  |  |  |
| c1ccc2c(c1)CN[C@@H](CN(CCC1CCNCC1)[C@H]1CCCc3cccnc31)C2 | 66 | inactive | 0.15 | > 14 | 17 | 32 | > 12 | 1.04 | 1.9 |  |  |  |  |  |  |  |  |
| c1cnc2c(c1)CCC[C@@H]2N(CCCN1CCNCC1)Cc1nc2ccccc2[nH]1 | 63 | inactive |  | > 17 | 29 | 68 | 12.7 | > 20 | 14.6 |  |  |  |  |  |  |  |  |
| c1cnc2c(c1)CCC[C@@H]2N(CCCN1CCNCC1)Cc1nc2ccccc2s1 | 50 | inactive |  | > 17 | 21 | 45 | 9.4 | > 20 |  |  |  |  |  |  |  |  |  |
| c1cnc2c(c1)CCC[C@@H]2N(CCCN1CCNCC1)Cc1cc2ccccc2cn1 | 66 | inactive | 0.017 | 3.2 | 59 | 74 | > 20 | 2.96 | 24.3 |  |  |  |  |  |  |  |  |
| CC(C)N1CCN(CCCN(C[C@H]2Cc3ccccc3CN2)[C@H]2CCCc3cccnc32)CC1 | 46 | inactive | 0.062 | > 17 | 4 | 58 | > 20 | 6.65 | 34.4 |  |  |  |  |  |  |  |  |
| c1ccc2c(c1)CN[C@@H](CN(CCCN1CCNCC1)[C@H]1CCCc3cccnc31)C2 | 100 | inactive | 0.017 | > 14 | 100 | 92 | > 12 | 2.14 |  | > 30 | > 30 | > 30 | > 30 | < 100 | < 100 | < 100 | < 100 |
| c1ccc2c(c1)CN[C@@H](CN(CC[C@@H]1CCCNC1)[C@H]1CCCc3cccnc31)C2 | 75 | inactive | 0.161 | > 14 | 28 | 23 | > 12 | 0.03 |  |  |  |  |  |  |  |  |  |
| c1ccc2c(c1)CN[C@@H](CN(CCN1CCNCC1)[C@H]1CCCc3cccnc31)C2 | 96 | inactive | 0.553 | > 14 | 62 | 79 | > 12 | 4.21 | 1 |  |  |  |  |  |  |  | < 100 |
| c1ccc2c(c1)CN[C@@H](CN(CC[C@H]1CCCNC1)[C@H]1CCCc3cccnc31)C2 | 93 | inactive | 0.016 | > 14 | 55 | 56 | > 12 | 0.11 | 5.5 | 5.9 | 11.3 | 11.3 | 10.7 | 100 to 1000 | 100 to 1000 | < 100 | < 100 |
| c1ccc2c(c1)CN[C@@H](CN(CCCCN1CCNCC1)[C@H]1CCCc3cccnc31)C2 | 82 | inactive | 0.066 | > 14 | 15 | 96 | > 12 | 1.43 | 1.4 |  |  |  |  |  |  |  |  |
| CCN1CCN(CCCN(C[C@H]2Cc3ccccc3CN2)[C@H]2CCCc3cccnc32)CC1 | 59 | inactive | 0.033 | > 17 | 1 | 19 | > 20 | > 20 | 31.7 |  |  |  |  |  |  |  |  |
| c1cnc2c(c1)CN[C@H](CN(CCCN1CCNCC1)[C@H]1CCCc3cccnc31)C2 | 100 | inactive | 2.64 | > 17 | 87 | 63 | > 20 | > 20 |  |  |  |  |  |  |  |  |  |
| c1ccc2c(c1)CN[C@H](CN(CCCN1CCNCC1)[C@H]1CCCc3cccnc31)C2 | 99 | inactive | 1.15 | > 17 | 88 | 88 | > 20 | 1.4 | 1.6 |  |  |  |  |  |  |  |  |
| c1cnc(CN(CCCN2CCNCC2)[C@H]2CCCc3cccnc32)nc1 | 100 | inactive |  | > 17 | 68 | 78 | > 20 | > 20 | 3.1 |  |  |  |  |  |  |  |  |
| NCCCCN(C[C@H]1Cc2ccccc2CN1)[C@H]1CCCc2cccnc21 |  | inactive |  |  |  |  |  |  |  | 3.7 | 14.9 | > 30 | > 30 |  |  |  |  |
| CN1CCN(CCCN(C[C@H]2Cc3ccccc3CN2)[C@H]2CCCc3cccnc32)CC1 | 72 | inactive | 0.125 | 6.56 | 10 | 53 | > 20 | 5.6 | 36 |  |  |  |  |  |  |  |  |
| c1cnc2c(c1)CN[C@@H](CN(CCCN1CCNCC1)[C@H]1CCCc3cccnc31)C2 | 79 | inactive | 0.171 | > 17 | 79 | 78 | > 20 | > 20 | 0.9 |  |  |  |  |  |  |  |  |
